pIC50: −log10 of the molar value. Where “and” joins values, the source holds several entries; their conditions need not be identical. Equal values may be shown once.
Tested on: 997537-175-T-J1-PDC complex spheroid viability
Assay: Anticancer human tumor 997537-175-T-J1-PDC patient-derived colon adenocarcinoma cell line growth inhibition [GQUAD]
Details: for viability, T/C: stronger effect = lower value
Source text: DNA G-quadruplex Stabilizer Agents in Combinations in Complex Spheroids
A high-throughput screen of multi-cell type tumor spheroids was designed to identify active combinations of DNA G-quadruplex stabilizer agents and targeted small molecules. Complex spheroids include a stromal component modeled by human endothelial cells (HUVEC) and fibroblasts modeled by human mesenchymal stem cells (MSCs). The concentration ranges selected for each drug and investigational agent were based upon clinically achievable concentrations if the clinical Cmax of the agent was known.
Compounds. The drugs and investigational agents: pidnarulex (CX-5461; NSC782164), APTO-253 (NSC789042), BRACO-19 (NSC847499), peposertib (NSC802822), ceralasertib (NSC780249), elimusertib (NSC800525), camonsertib (NSC841442), AZD-1390 (NSC803789), olaparib (NSC753686), talazoparib (NSC767125), ART-558 (NSC835418), sotorasib (NSC818433), MRTX-1133 (NSC836407), SN-38 (NSC673596), topotecan (NSC609699), etoposide (NSC141540), doxorubicin (NSC123127), gemcitabine (NSC613327), 5-fluorouracil (NSC19893), paclitaxel (NSC125973), vemurafenib (NSC761431), panobinostat (NSC761190), R-306465 (JNJ-16241199; NSC773264), adavosertib (NSC754352), TP-3654 (NSC805149), carboplatin (NSC241240), KSQ-4279 (NSC840948), and staurosporine (NSC755774) were obtained from the National Cancer Institute (NCI) Developmental Therapeutics Program Chemical Repository (34). The FDA-approved anticancer drug set is available from the NCI Developmental Therapeutics Program. […] The stock solutions were prepared in dimethyl sulfoxide (DMSO, Sigma-Aldrich, St. Louis, MO, cat. D2650) at 800-fold the tested concentration and stored at -70 degrees C prior to their use. All drugs and investigational agents were tested over a range starting from a high concentration at or near the clinical Cmax and decreasing in half-log increments. If the clinical Cmax for an agent had not been determined, the highest concentration tested was 10 microM.
2.3 Cell Culture. All cells were maintained in an incubator at 37 degrees C and 5% CO2 with 95% humidity. The PDC lines were cultured according to standard operating procedures established by the NCI PDMR. All PDCs were thawed and cultured in Matrigel-coated flasks prepared with a working solution of 1X Ham's F-12 nutrient mix, without supplementation (Invitrogen, cat. 11765054), 100 U/mL penicillin-streptomycin (Invitrogen, cat. 15140122), and 2.5% Matrigel (Corning Inc., cat. 354248) for the first three passages. The 857933-349-R-J2-PDC line was cultured in 6C/Colon 1B media, which includes advanced DMEM/F-12 (Thermo Fisher Scientific, cat. 12634028), 10 mM HEPES (Thermo Fisher Scientific, cat. 15630080), 1X GlutaMAX supplement (Thermo Fisher Scientific, cat. 35050061), 0.1 mg/mL primocin (InvivoGen, cat. ant-pm-2), 10% defined fetal bovine serum, heat inactivated (HyClone Laboratories Inc., cat. SH30070.03HI), 50% L-WRN conditioned media (ATCC, cat. CRL-3276), 1.25 mM N-Acetyl-L-cysteine (Sigma-Aldrich, cat. A9165), 10 mM nicotinamide (Sigma-Aldrich, cat. N0636), 1X B-27 supplement (Thermo Fisher Scientific, cat. 17504044), 1X N-2 supplement (Thermo Fisher Scientific, cat. 17502048), 10 microM Y-27632 dihydrochloride (Tocris Bioscience, cat. 1254), and 50 ng/mL human EGF recombinant protein (Thermo Fisher Scientific, cat. PHG0311). The 485176-168-R4-J1-PDC line was cultured in Panc media, which includes all 6C/Colon 1B media components plus 100 ng/mL human FGF-10 (Thermo Fisher Scientific, cat. 100-26), 500 nM SB-431542 (Selleckchem, cat. S1067), and gastrin (Tocris, cat. 3006).
[…]
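Note: spheroids exposed to the agents for 7 days.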
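Throughout, for viability, T/C: 100% = DMSO vehicle control viability.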

SMILES: Nc1ccn(C2OC(CO)C(O)C2(F)F)c(=O)n1 (stereo not drawn) + CN(C)c1ccc(Nc2c3ccc(NC(=O)CCN4CCCC4)cc3nc3cc(NC(=O)CCN4CCCC4)ccc23)cc1
- pIC50 (curve of first compound, second compound 0.0316 µM): < 5.00
- pIC50 (curve of first compound, second compound 0.1 µM): < 5.00
- pIC50 (curve of first compound, second compound 0.316 µM): < 5.00
- pIC50 (curve of first compound, second compound 1 µM): 5.03
- pIC50 (curve of first compound, second compound 3.16 µM): < 5.00
- pIC50 (curve of first compound, second compound 10 µM): < 5.00
- viability, T/C (second compound 0.0316 µM, first compound 0.0316 µM): 99.1%
- viability, T/C (second compound 0.0316 µM, first compound 0.1 µM): 104%
- viability, T/C (second compound 0.0316 µM, first compound 0.316 µM): 110%
- viability, T/C (second compound 0.0316 µM, first compound 1 µM): 64.1%
- viability, T/C (second compound 0.0316 µM, first compound 3.16 µM): 70.2%
- viability, T/C (second compound 0.0316 µM, first compound 10 µM): 69.5%
- viability, T/C (second compound 0.1 µM, first compound 0.0316 µM): 96.3%
- viability, T/C (second compound 0.1 µM, first compound 0.1 µM): 98.5%
- viability, T/C (second compound 0.1 µM, first compound 0.316 µM): 97.1%
- viability, T/C (second compound 0.1 µM, first compound 1 µM): 72.3%
- viability, T/C (second compound 0.1 µM, first compound 3.16 µM): 88.3%
- viability, T/C (second compound 0.1 µM, first compound 10 µM): 68.8%
- viability, T/C (second compound 0.316 µM, first compound 0.0316 µM): 81.7%
- viability, T/C (second compound 0.316 µM, first compound 0.1 µM): 97.8%
- viability, T/C (second compound 0.316 µM, first compound 0.316 µM): 74.5%
- viability, T/C (second compound 0.316 µM, first compound 1 µM): 74%
- viability, T/C (second compound 0.316 µM, first compound 3.16 µM): 96.8%
- viability, T/C (second compound 0.316 µM, first compound 10 µM): 77.6%
- viability, T/C (second compound 1 µM, first compound 0.0316 µM): 66.7%
- viability, T/C (second compound 1 µM, first compound 0.1 µM): 86.9%
- viability, T/C (second compound 1 µM, first compound 0.316 µM): 79.9%
- viability, T/C (second compound 1 µM, first compound 1 µM): 87.5%
- viability, T/C (second compound 1 µM, first compound 3.16 µM): 110%
- viability, T/C (second compound 1 µM, first compound 10 µM): 47.5%
- viability, T/C (second compound 3.16 µM, first compound 0.0316 µM): 55.6%
- viability, T/C (second compound 3.16 µM, first compound 0.1 µM): 80.3%
- viability, T/C (second compound 3.16 µM, first compound 0.316 µM): 79.7%
- viability, T/C (second compound 3.16 µM, first compound 1 µM): 81%
- viability, T/C (second compound 3.16 µM, first compound 3.16 µM): 84.5%
- viability, T/C (second compound 3.16 µM, first compound 10 µM): 66.2%
- viability, T/C (second compound 10 µM, first compound 0.0316 µM): 84%
- viability, T/C (second compound 10 µM, first compound 0.1 µM): 85.1%
- viability, T/C (second compound 10 µM, first compound 0.316 µM): 84.7%
- viability, T/C (second compound 10 µM, first compound 1 µM): 89.5%
- viability, T/C (second compound 10 µM, first compound 3.16 µM): 80.8%
- viability, T/C (second compound 10 µM, first compound 10 µM): 63.5%

SMILES: CC1COCCN1c1cc(C2(S(C)(=N)=O)CC2)nc(-c2ccnc3[nH]ccc23)n1 (stereo not drawn)
- viability, T/C (compound 0.0316 µM): 98.9% and 93.7% and 101%
- viability, T/C (compound 0.1 µM): 81.9% and 86.5% and 95.8%
- viability, T/C (compound 0.316 µM): 83.6% and 94.9% and 77%
- viability, T/C (compound 1 µM): 83.5% and 68.5% and 90.1%
- viability, T/C (compound 3.16 µM): 56.5% and 65.7% and 59.5%
- viability, T/C (compound 10 µM): 46.4% and 44.1% and 36.8%
- pIC50 (curve of compound): 5.15 and 5.25

SMILES: CCCS(=O)(=O)Nc1ccc(F)c(C(=O)c2c[nH]c3ncc(-c4ccc(Cl)cc4)cc23)c1F
- viability, T/C (compound 0.0316 µM): 98.4% and 98.6% and 86.2%
- viability, T/C (compound 0.1 µM): 99.3% and 95.1% and 77.8%
- viability, T/C (compound 0.316 µM): 97.4% and 68.8% and 65.1%
- viability, T/C (compound 1 µM): 89.6% and 71.8% and 53%
- viability, T/C (compound 3.16 µM): 45.4% and 56.1% and 52.3%
- viability, T/C (compound 10 µM): 34.9% and 24.1% and 25%
- pIC50 (curve of compound): 5.55 and 5.50 and 5.75

SMILES: CC[C@@]1(O)C(=O)OCc2c1cc1n(c2=O)Cc2cc3c(CN(C)C)c(O)ccc3nc2-1
- viability, T/C (compound 0.000999 µM): 111% (2×) and 97.1%
- viability, T/C (compound 0.00316 µM): 69.8% and 102% and 104%
- viability, T/C (compound 0.00999 µM): 90.1% and 96.7% and 105%
- viability, T/C (compound 0.0316 µM): 80.1% and 87.1% and 83.8%
- viability, T/C (compound 0.0999 µM): 71.2% and 79.7% and 72.6%
- viability, T/C (compound 0.316 µM): 44.4% and 62.8% and 50.7%
- pIC50 (curve of compound): 6.56 and < 6.50
